Assay results: article PMC4891710, “Unexpected involvement of staple leads to redesign of selective bicyclic peptide inhibitor of Grb7” (Scientific Reports, 2016)
“Also recorded” adds a separate entry of the source. Read-outs that look alike come from different tables or passages of the source. Blank lines part the entries; values can stand above or below the molecule they belong to. Positions of bridges follow the written chain, without caps; N, C: chain ends. Non-standard residues stand in square brackets, D forms with d. Residues, ends and D or L forms follow the SMILES beside them. Ser(allyl) = C=CCOC[C@H](N)C(=O)O

Assays:
Grb7-SH2 domain [1] = molecular target: T1, Grb7-SH2 domain (Homo sapiens, UniProt Q14451); design: Grb7-SH2 (encoding residues 415–532); made in house; host or cells: E. coli BL21 (DE3) pLysS; conditions: previously determined by ITC; cited from earlier work
T1 sequence (Q14451 415-532): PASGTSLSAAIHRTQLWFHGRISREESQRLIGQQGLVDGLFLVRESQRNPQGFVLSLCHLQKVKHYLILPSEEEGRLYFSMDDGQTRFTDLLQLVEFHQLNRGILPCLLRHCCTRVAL

Grb7-SH2 domain [2] = molecular target: T1, Grb7-SH2 domain; assay: SPR binding of G7 peptides to GST-Grb7-SH2 domain; conditions: for Kd: KD (equilibrium dissociation constant), steady-state equilibrium, single-site model, 50 mM sodium phosphate, 150 mM NaCl, 1 mM DTT, pH 7.4, 25 °C; for Bmax (maximum binding signal): fit to single-site saturation model
Grb14-SH2 domain = molecular target: T2, Grb14-SH2 domain (Homo sapiens, UniProt Q14449); assay: SPR binding of G7-B4 to GST-Grb14-SH2 domain
T2 construct: Grb14-SH2 (encoding residues 426–540); made in house; host or cells: E. coli BL21 (DE3) pLysS
T2 sequence (Q14449 426-540): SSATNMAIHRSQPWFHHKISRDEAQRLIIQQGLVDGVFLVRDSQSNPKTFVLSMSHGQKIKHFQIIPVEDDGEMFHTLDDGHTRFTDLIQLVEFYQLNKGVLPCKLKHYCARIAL
Description: (§1) Previous studies have established the preferential binding of the G7-18NATE peptide to Grb7-SH2 over closely related SH2 domains (Grb10- and Grb14-SH2 domains that share 67% and 65% identity respectively, to the Grb7-SH2 and Grb2-SH2 (~26% identity) domain that shares the pYXN peptide recognition motif)[26]. In order to determine whether the bicyclic peptide G7-B4 retains its specificity for the Grb7-SH2 domain we measured the binding of G7-B4 to Grb2-, Grb10- and Grb14-SH2 domains using SPR. […] Therefore the binding of G7-B4 to Grb2-, Grb10- and Grb14-SH2 is over 130 times weaker than binding to Grb7-SH2 domain, showing that G7-B4 is highly specific for the Grb7-SH2 domain.
(§2) The pGEX2T plasmids with inserts containing Grb7-SH2 (encoding residues 415–532), Grb2-SH2 (encoding residues 58–160), Grb10-SH2 (encoding residues 471–594) and Grb14-SH2 (encoding residues 426–540) were kindly provided by Dr. Roger Daly. Glutathion-S-Transferase (GST)-Grb2-SH2, GST-Grb7-SH2, Grb-10-SH2 and GST-Grb14-SH2 were all expressed and purified as previously described. […] The free Grb7-SH2 used in crystallography was expressed as a GST-fusion protein and was purified by GST affinity, followed by thrombin cleavage to liberate free Grb7-SH2, and then purified by cation exchange chromatography, and size exclusion chromatography as previously described. […]

Grb10-SH2 domain = molecular target: T3, Grb10-SH2 domain (Homo sapiens, UniProt Q13322); assay: SPR binding of G7-B4 to Grb10-SH2 domain
T3 construct: Grb10-SH2 (encoding residues 471–594); made in house; host or cells: E. coli BL21 (DE3) pLysS
T3 sequence (Q13322 471-594): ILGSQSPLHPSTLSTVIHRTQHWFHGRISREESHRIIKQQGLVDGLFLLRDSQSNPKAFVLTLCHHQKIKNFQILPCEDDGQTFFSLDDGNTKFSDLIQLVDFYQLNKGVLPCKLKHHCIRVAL
Description: as §1, §2

Grb2-SH2 domain = molecular target: T4, Grb2-SH2 domain (Homo sapiens, UniProt P62993); assay: SPR binding of G7-B4 to GST-Grb2-SH2 domain
T4 construct: Grb2-SH2 (encoding residues 58–160); made in house; host or cells: E. coli BL21 (DE3) pLysS
T4 sequence (P62993 58-160): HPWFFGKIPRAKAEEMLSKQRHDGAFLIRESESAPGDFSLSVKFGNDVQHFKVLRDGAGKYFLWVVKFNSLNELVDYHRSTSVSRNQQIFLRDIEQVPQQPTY
Description: as §1, §2

GST-Grb7-SH2 [3] = molecular target: T5, GST-Grb7-SH2 (UniProt Q14451 415-532); assay: SPR; BIAcore T100; GST-SH2 proteins captured on anti-GST antibody on a CM5 chip, GST on the control cells; peptides 0-100 uM injected 60 s at 30 uL/min; 50 mM sodium phosphate, 150 mM NaCl, 1 mM DTT, pH 7.4; 25 C; KD from steady-state curves, single-site model; conditions: both partners purified
T5 construct: pGEX2T insert; GST fusion used in SPR, captured by an anti-GST antibody; also called Grb7-SH2 domain
T5 sequence (Q14451 415-532): as the sequence (Q14451 415-532) above

GST-Grb7-SH2 [4] = molecular target: T5, GST-Grb7-SH2; assay: as above; conditions: both partners purified; remark: listed apart in the source
[5] = SPR, no curvature up to 100 μM, saturation well below 50%

- Kd (Grb7-SH2 domain [2]; SPR): 4.9 ± 0.03 µM
- Bmax (maximum binding signal) (Grb7-SH2 domain [2]; SPR): 53.47 ± 0.02 RU
- times weaker affinity compared to G7-B1 (Grb7-SH2 domain [2]; ratio of SPR KD values): approximately 3 times
Molecule: NC(=O)C[C@@H]1NC(=O)[C@H](CC(=O)O)NC(=O)[C@H](Cc2ccc(O)cc2)NC(=O)CNC(=O)[C@H](CCC(=O)O)NC(=O)[C@H](Cc2ccccc2)NC(=O)[C@@H]2COCC=CCOC[C@H](NC1=O)C(=O)N1CCC[C@H]1C(=O)N[C@H](C(N)=O)CSCC(=O)N2 [Peptide G7-B3] ({CH2CO}-[Ser(allyl)]FEGYDN[Ser(allyl)]PC-NH2; staple 1-8; thioether N-10)

- Kd (Grb14-SH2 domain; [5]): > 100 µM
- times weaker binding than to Grb7-SH2 domain (Grb14-SH2 domain; selectivity Grb7-SH2 over Grb14-SH2): over 130 times
- Kd (Grb10-SH2 domain; [5]): > 100 µM
- times weaker binding than to Grb7-SH2 domain (Grb10-SH2 domain; selectivity Grb7-SH2 over Grb10-SH2): over 130 times
- Kd (Grb2-SH2 domain; [5]): > 100 µM
- times weaker binding than to Grb7-SH2 domain (Grb2-SH2 domain; selectivity Grb7-SH2 over Grb2-SH2): over 130 times
Molecule: NC(=O)C[C@@H]1NC(=O)[C@H](CC(=O)O)NC(=O)[C@H](Cc2ccc(O)cc2)NC(=O)CNC(=O)[C@H](CCC(=O)O)NC(=O)[C@H](Cc2ccccc2)NC(=O)[C@@H]2COCC=CCOC[C@H](NC1=O)C(=O)N[C@H](C(N)=O)CSCC(=O)N2 [Peptide G7-B4] ({CH2CO}-[Ser(allyl)]FEGYDN[Ser(allyl)]C-NH2; staple 1-8; thioether N-9)

- Kd (GST-Grb7-SH2 [3]): 0.83 µM
- koff (GST-Grb7-SH2 [4]): ~0.25 s⁻¹
B2: G7-B4 (cyclo-(CH2CO-(XFEGYDNXC)-CONH2 where X = O-allylserine) (peptide)
chain: {CH2CO}-[Ser(allyl)]FEGYDN[Ser(allyl)]C-NH2
modifications: staple 1-8; thioether N-9

- Kd (GST-Grb7-SH2 [3]): 4.93 µM
B3: G7-B4NS (cyclo-(CH2CO-(XFEGYDNXC)-CONH2 where X = O-allylserine), without ring closing metathesis (peptide)
chain: {CH2CO}-[Ser(allyl)]FEGYDN[Ser(allyl)]C-NH2
modifications: thioether N-9
SMILES: C=CCOC[C@@H]1NC(=O)CSC[C@@H](C(N)=O)NC(=O)[C@H](COCC=C)NC(=O)[C@H](CC(N)=O)NC(=O)[C@H](CC(=O)O)NC(=O)[C@H](Cc2ccc(O)cc2)NC(=O)CNC(=O)[C@H](CCC(=O)O)NC(=O)[C@H](Cc2ccccc2)NC1=O

Continued, molecule first:

Molecule: NC(=O)C[C@@H]1NC(=O)[C@H](CC(=O)O)NC(=O)[C@H](Cc2ccc(O)cc2)NC(=O)CNC(=O)[C@H](CCC(=O)O)NC(=O)[C@H](Cc2ccccc2)NC(=O)[C@@H]2COCC=CCOC[C@H](NC1=O)C(=O)N[C@@H](Cc1ccccc1)C(=O)N1CCC[C@H]1C(=O)N[C@H](C(N)=O)CSCC(=O)N2 [Peptide G7-B1] ({CH2CO}-[Ser(allyl)]FEGYDN[Ser(allyl)]FPC-NH2; staple 1-8; thioether N-11)
- Kd (Grb7-SH2 domain [1]): 1.9 µM

Molecule: C=CCOC[C@@H]1NC(=O)CSC[C@@H](C(N)=O)NC(=O)[C@H](COCC=C)NC(=O)[C@H](CC(N)=O)NC(=O)[C@H](CC(=O)O)NC(=O)[C@H](Cc2ccc(O)cc2)NC(=O)CNC(=O)[C@H](CCC(=O)O)NC(=O)[C@H](Cc2ccccc2)NC1=O [Peptide G7-B4NS] ({CH2CO}-[Ser(allyl)]FEGYDN[Ser(allyl)]C-NH2; thioether N-9)
- Kd (Grb7-SH2 domain [2]; SPR): 4.9 µM
- Bmax (maximum binding signal) (Grb7-SH2 domain [2]; SPR): 34.78 ± 0.01 RU
- fold loss in binding affinity compared to G7-B4 (Grb7-SH2 domain [2]; ratio of SPR KD values): 6 fold

Molecule: CH3-CO-NH2-(XFEGYDNX)-CONH2 where X = O-allylserine (Ac-[Ser(allyl)]FEGYDN[Ser(allyl)]-NH2; staple 1-8; SMILES CC(=O)N[C@H]1COCC=CCOC[C@@H](C(N)=O)NC(=O)[C@H](CC(N)=O)NC(=O)[C@H](CC(=O)O)NC(=O)[C@H](Cc2ccc(O)cc2)NC(=O)CNC(=O)[C@H](CCC(=O)O)NC(=O)[C@H](Cc2ccccc2)NC1=O) [Peptide G7-B1NT]
- binding to Grb7-SH2 domain (in words) (Grb7-SH2 domain [2]; SPR, peptide up to 100 μM): very weak binding; also recorded: dramatically reduced affinity

B1: G7-B1 (cyclo-(CH2CO-(XFEGYDNXFPC)-CONH2 where X = O-allylserine) (peptide)
chain: {CH2CO}-[Ser(allyl)]FEGYDN[Ser(allyl)]FPC-NH2
modifications: staple 1-8; thioether N-11
SMILES: NC(=O)C[C@@H]1NC(=O)[C@H](CC(=O)O)NC(=O)[C@H](Cc2ccc(O)cc2)NC(=O)CNC(=O)[C@H](CCC(=O)O)NC(=O)[C@H](Cc2ccccc2)NC(=O)[C@@H]2COCC=CCOC[C@H](NC1=O)C(=O)N[C@@H](Cc1ccccc1)C(=O)N1CCC[C@H]1C(=O)N[C@H](C(N)=O)CSCC(=O)N2
- Kd (GST-Grb7-SH2 [3]): 1.5 µM
- koff (GST-Grb7-SH2 [4]): ~0.21 s⁻¹
